# Where two headings read alike, the source gives them in different places.
# How the values were obtained:
# [1] = Oral pharmacokinetic study in mice, plasma LC-MS/MS; format: in vivo; conditions: 10 mpk, female Balb C mice
# Protocol: Female Balb C mice 4 per group after overnight fasting were dosed orally (via gavage) with compound 1 in 5% NMP in normal saline (10 ml/kg). Blood was collected by serial bleeding at 0.16 hr, 0.5 hr, 1 hr, 2 hr, 4 hr, 6 hr, 8 hr in heparinized tubes. Blood samples were centrifuged at 10,000 rpm for 5 min. at 4° C. to obtain the plasma, which were aspirated into separate labeled tubes and stored at −80° C. 400 ng/ml of standard in acetonitrile was used as the drug extraction solvent for extracting drug from plasma. Extraction solvent was added to plasma was vortexed and shaken on shaker for 10 minutes, centrifuged at 10,000 rpm for 10 minutes at 4° C. Supernatant was kept for analysis.
# Acetonitrile and plasma calibration curves were generated and percentage of drug recovery from plasma determined. Quantitative analysis was done by liquid chromatography tandem mass spectrometer (API3200 LC-MS/MS). Cmax, Tmax, AUC and t1/2 were calculated using Graph Pad PRISM version 5.04 and the results were depicted in Table 3.
# [2] = test system: AMP kinase; test: cell-based fluorescent ELISA of AMP kinase phosphorylation status in cultured cells; conditions: AMP kinase phosphorylation (pAMPK) in cultured cells
# Protocol: The compounds of the present invention were tested for their activity on AMP kinase. The activity on AMP kinase was evaluated by quantitative fluorescent immunoenzymatic assay of AMP kinase phosphorylation status in cultured cells. The 5-AMP-activated protein kinase (AMP kinase) is a key sensor of intracellular energy balance. AMP kinase is activated in response to an increase in the AMP/ATP ratio which can be caused by a number of factors such as muscle contraction, starvation, or hypoxia. AMP kinase is a heterotrimeric protein complex comprising of (63 kDa),—(38 kDa) and—•(38 kDa) subunits. For each subunit, isoforms have been identified (1, 2, 1, 2, 1, 2, 3) which theoretically allow the formation of 12 different proteins. The -subunit contains a serine/threonine kinase domain and the regulatory subunits contain binding sites for AMP and ATP (-subunit) and for glycogen (-subunit). AMP kinase is activated by phosphorylation on Thr-172 within the catalytic domain. AMP binding results in a 2 to 5-fold increase in AMP kinase activity compared to the basal level. […]
# BioAssay Systems' cell-based ELISA measure phosphorylated AMP kinase in whole cells and normalizes the signal to the total protein content. […] AMP kinase phosphorylation (pAMPK) is measured using a fluorescent ELISA followed by total protein measurement in each well.
# [3] = test system: Electron Transport Chain Complex IV; test: increase of the expression of Electron Transport Chain IV (ETC IV); format: cell-based; conditions: for EC50: increase of expression of ETC IV, read-out: EC50 on mitochondrial ETC complexes: Electron Transport Chain Complex IV
# From the text: The present invention discloses a remarkable range of biological activity across the two enantiomers of epicatechin, something heretofore not described for flavonoids as a class. The enantiomer of (−)-epicatechin is (+)-epicatechin. […]
# [4] = Effect on triglyceride level in animals on High Fat Diet; format: in vivo, mice; conditions: 15 days
# Protocol: Animals were placed on High Fat Diet (HFD) until they gain more than 20% of Body weight compared with animals on standard chow and reached glycemia levels ≥200 mg/dL (usually 4-6 weeks). Animals were randomly assigned to Control (obese group) receiving vehicle only (by gavage): n=12; (+)-Epicatechin—orally by gavage: n=10: (−)-Epicatechin—orally by gavage: n=10.
# All animals were treated for 15 days and continued under HFD. The results are presented at FIG. 3.
smiles,measurement,setting,value
"CCCCCCCC(=O)Oc1cc(O)cc2c1C[C@H](O)[C@H](c1ccc(O)c(O)c1)O2 [Compound 1001, (2S,3S)-2-(3,4-dihydroxyphenyl)-3,7-dihydroxychroman-5-yl octanoate]",AUC,"[1]; mouse, 10 mg/kg, read-out: AUC",2.8 µM·h
same,half-life,"[1]; mouse, 10 mg/kg, read-out: Elimination t½ (converted)",4.5 h
same,concentration at which AMPK activity is exhibited,[2],1 nM
"Oc1cc(O)c2c(c1)O[C@H](c1ccc(O)c(O)c1)[C@H](O)C2 [(−)-Epicatechin, reference compound]",EC50,[3],40 µM
Oc1cc(O)c2c(c1)O[C@@H](c1ccc(O)c(O)c1)[C@@H](O)C2 [(+)-Epicatechin],AUC,[1],0.683 µM·h
same,Elimination t½,[1],2.13 h
same,fold more potent than (−)-epicatechin on increase of the expression of ETC IV,[3]; (+)-epicatechin versus (−)-epicatechin,approximately 400 fold
same,EC50,[3],0.1 µM
same,improvement over (−)-epicatechin in dose giving the same triglyceride reduction,"[4]; 0.003 vs 0.1 mg/Kg/day, oral",> 30 fold
same,reduction in triglyceride levels,"[4]; (+)-epicatechin 0.003 mg/Kg/day vs (−)-epicatechin 0.1 mg/Kg/day, orally by gavage, FIG. 3 triglycerides content of livers",shows the same reduction in triglyceride levels as (−)-epicatechin
